Test [1] concerns S6RP serine-240/244 phosphorylation. Briefly: In vitro phospho-S6 cellular assay. Format: cell-based. To be noted: Homo sapiens; HEK293T/17 cells, 2 hours; read-out: pS6 inhibition value (IC50), activity level. An outline of the steps:
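HEK293T/17 cells (40,000/well for pS6RP, 80,000/well for pAkt) in DMEM, 2% FCS treated 2 h at 37 °C with 8 compound concentrations (0.1% DMSO). Lysates assayed by MesoScale sandwich electrochemiluminescence for pS6RP Ser240/244 or pAkt Ser473. Curves fitted by sigmoidal variable-slope regression.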

In test [2] the test system is IFNγ release in whole blood. Briefly: In vitro human whole blood assay (IFNγ release). To be noted: αCD3/αCD28 and IL-2 stimulation, 18 hours, read-out: WB inhibition value (pIC50) (converted). Format: cell-based. The method, then: This assay measures IFNγ release in whole blood after αCD3/αCD28 and IL-2 treatment. The whole blood contains circulating T lymphocytes; αCD3/αCD28 stimulation mimics antigen receptor signalling, resulting in epigenetic changes to the IFNG gene locus, such that when IL-2 is added, IFNγ is produced.
Human whole blood, with Na-heparin as the anticoagulant, is obtained from Clinical Trials Laboratory Services. Blood is diluted 1.4 times with RPMI 1640 (Lonza, BE12-167F) and 175 μl/well is distributed in a low evaporation 96-well plates (Falcon, BD Labware, 353072). Blood is treated with 10 concentrations of test compounds or DMSO alone for controls (final DMSO concentration 0.2%) and incubated at 37° C. for 1 hour. Blood is then stimulated with 1 μg/ml αCD3 (R&D Systems, MAB100), 1 μg/ml αCD28 (BD Pharmingen, 555725) and IL-2 at 10 ng/ml (Peprotech, 200-02). Blood is then left to incubate at 37° C. for 18 hours. After, plates are spun at 250 g for 5 minutes to pellet blood cells and 25 μl of plasma is transferred to a MesoScale plate coated with an antibody to IFNγ (MesoScale Discovery K151AEC-2) containing 25 μl/well MesoScale Discovery Blocking Solution-2. Plates have been blocked by incubating with 25 μl/well MesoScale Discovery Blocking Solution-2 for 30 minutes at room temperature. After the transfer of sera to the MSD plate, the IFNγ protein is captured on the coated antibody by incubation at room temperature for 2 hour with gentle shaking. After the capture step the plate is washed three times with 150 μl/well of 1×PBS-Tween wash buffer and 25 μl/well detection antibody conjugated with a Sulfo-Tag is added and incubated for 2 hours at room temperature with gentle shaking. Subsequently the antibody solution is removed and the plate is washed 3 times with 150 μl/well 1×PBS-Tween wash buffer and 150 μl/well MesoScale Discovery Read buffer is added. The plates are analysed on a MSD 2400 Plate Reader (MesoScale Discovery). Data analysis is performed using nonlinear regression for a sigmoidal dose-response with a variable slope.

Test [3] concerns the target mTOR (Homo sapiens, UniProt P42345). Kind of test: biochemical.
For test [4], the target named is DNA-dependent protein kinase (DNA-PK) (Homo sapiens, UniProt P78527). Kind of test: biochemical.
Sequence of DNA-dependent protein kinase (DNA-PK) (P78527 whole entry): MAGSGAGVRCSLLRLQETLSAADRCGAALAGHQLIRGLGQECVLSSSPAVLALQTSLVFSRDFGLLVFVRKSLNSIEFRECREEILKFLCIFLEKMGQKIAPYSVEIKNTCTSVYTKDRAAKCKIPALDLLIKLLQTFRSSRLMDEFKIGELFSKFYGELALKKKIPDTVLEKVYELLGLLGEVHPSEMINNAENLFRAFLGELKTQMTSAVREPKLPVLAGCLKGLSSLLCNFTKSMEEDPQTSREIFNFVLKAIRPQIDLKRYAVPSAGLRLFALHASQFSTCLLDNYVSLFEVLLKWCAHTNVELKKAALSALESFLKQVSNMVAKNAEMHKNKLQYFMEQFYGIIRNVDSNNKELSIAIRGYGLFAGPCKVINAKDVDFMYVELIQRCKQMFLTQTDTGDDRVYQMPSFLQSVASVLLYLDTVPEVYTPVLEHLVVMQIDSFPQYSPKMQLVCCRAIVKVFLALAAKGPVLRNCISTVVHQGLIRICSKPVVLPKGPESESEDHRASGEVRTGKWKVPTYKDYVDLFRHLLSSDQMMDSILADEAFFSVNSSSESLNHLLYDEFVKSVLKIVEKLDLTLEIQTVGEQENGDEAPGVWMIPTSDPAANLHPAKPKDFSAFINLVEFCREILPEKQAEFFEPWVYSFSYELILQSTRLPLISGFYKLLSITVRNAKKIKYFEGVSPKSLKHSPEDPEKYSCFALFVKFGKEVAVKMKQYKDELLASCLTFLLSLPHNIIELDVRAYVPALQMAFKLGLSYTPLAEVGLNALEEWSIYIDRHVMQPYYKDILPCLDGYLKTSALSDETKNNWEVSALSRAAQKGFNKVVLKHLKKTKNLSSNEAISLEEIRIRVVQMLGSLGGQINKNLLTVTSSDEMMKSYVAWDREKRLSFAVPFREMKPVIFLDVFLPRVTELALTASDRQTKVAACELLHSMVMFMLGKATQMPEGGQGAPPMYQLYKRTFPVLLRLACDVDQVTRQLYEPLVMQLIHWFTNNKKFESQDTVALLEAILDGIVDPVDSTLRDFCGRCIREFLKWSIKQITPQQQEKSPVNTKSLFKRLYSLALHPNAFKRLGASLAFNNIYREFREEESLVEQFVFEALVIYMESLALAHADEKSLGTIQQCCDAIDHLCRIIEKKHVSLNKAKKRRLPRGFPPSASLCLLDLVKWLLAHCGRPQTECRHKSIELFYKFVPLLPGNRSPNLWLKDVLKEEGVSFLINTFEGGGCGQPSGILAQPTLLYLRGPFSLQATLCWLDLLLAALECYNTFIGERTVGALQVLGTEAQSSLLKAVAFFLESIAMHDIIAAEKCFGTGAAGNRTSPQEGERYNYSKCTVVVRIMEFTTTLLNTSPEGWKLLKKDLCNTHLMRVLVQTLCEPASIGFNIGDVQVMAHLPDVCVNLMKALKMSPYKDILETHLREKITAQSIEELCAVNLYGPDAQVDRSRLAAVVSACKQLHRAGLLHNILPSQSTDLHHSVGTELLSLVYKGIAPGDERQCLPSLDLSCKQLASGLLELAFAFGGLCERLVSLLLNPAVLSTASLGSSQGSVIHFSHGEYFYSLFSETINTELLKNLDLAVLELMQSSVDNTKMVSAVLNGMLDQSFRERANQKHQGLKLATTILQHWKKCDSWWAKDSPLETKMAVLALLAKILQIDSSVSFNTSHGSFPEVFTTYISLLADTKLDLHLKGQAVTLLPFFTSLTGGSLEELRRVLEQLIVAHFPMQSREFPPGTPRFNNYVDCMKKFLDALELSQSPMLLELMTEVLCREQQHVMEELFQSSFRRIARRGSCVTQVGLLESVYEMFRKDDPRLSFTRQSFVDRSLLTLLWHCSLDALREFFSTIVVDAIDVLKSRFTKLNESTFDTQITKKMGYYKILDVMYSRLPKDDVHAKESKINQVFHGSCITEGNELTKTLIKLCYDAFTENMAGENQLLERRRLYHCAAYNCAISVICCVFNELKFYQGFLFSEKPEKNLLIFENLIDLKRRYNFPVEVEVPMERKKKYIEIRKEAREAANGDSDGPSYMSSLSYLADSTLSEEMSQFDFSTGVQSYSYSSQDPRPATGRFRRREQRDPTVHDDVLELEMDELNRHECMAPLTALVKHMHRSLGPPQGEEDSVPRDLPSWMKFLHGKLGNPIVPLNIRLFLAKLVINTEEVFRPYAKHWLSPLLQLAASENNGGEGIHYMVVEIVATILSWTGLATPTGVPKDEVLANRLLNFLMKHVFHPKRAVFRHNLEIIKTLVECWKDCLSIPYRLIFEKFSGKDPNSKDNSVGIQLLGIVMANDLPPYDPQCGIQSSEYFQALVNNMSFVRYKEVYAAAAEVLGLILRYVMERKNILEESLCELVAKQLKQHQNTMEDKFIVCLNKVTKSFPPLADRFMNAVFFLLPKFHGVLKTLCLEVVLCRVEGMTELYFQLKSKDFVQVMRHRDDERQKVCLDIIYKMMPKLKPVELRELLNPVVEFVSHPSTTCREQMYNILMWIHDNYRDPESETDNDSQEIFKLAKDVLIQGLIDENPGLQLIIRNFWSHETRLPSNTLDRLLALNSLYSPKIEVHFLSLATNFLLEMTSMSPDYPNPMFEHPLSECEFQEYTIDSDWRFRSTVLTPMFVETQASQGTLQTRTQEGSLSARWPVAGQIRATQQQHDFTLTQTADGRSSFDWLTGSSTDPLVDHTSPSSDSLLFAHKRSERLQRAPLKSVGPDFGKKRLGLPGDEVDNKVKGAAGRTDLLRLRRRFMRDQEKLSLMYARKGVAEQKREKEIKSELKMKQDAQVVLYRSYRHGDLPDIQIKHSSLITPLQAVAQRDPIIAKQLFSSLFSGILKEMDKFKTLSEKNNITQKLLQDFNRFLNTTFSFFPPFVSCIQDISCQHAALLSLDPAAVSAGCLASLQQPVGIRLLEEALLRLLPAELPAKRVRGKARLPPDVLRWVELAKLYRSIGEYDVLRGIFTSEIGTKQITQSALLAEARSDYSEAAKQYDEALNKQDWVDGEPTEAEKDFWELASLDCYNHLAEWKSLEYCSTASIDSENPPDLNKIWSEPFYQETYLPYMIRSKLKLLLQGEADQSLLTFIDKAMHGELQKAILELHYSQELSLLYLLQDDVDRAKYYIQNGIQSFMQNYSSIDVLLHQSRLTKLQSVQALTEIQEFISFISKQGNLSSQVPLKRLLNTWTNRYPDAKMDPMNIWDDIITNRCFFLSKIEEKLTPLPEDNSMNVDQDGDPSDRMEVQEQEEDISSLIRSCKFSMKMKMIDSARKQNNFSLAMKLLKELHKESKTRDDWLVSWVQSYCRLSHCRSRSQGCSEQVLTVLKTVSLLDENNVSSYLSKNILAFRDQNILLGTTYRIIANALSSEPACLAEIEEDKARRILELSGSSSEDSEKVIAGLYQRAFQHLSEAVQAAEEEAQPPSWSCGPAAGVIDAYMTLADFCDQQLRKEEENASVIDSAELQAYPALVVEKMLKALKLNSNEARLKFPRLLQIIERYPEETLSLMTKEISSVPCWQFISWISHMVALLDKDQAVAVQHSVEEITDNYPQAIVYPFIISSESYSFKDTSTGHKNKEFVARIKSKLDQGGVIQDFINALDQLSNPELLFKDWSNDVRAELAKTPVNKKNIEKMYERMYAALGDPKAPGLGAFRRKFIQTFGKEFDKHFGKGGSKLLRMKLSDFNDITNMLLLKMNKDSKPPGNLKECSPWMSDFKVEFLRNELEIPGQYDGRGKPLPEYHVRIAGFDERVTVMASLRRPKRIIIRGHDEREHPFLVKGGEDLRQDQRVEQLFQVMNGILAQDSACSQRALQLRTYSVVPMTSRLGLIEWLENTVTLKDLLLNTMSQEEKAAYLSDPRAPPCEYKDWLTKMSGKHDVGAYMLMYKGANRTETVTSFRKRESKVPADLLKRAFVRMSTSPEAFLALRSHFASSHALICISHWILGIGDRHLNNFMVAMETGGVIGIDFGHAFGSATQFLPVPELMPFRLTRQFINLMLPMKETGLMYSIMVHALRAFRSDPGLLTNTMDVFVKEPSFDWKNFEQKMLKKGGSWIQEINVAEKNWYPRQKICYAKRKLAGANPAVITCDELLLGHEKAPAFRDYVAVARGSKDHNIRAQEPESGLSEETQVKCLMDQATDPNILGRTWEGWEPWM

These results are taken from patent publication US9242993B2, “Morpholino substituted bicyclic pyrimidine urea or carbamate derivatives as mTOR inhibitors” (CELLZOME LIMITED, priority 2011, dated 2016).

Consider `C[C@H]1COCCN1c1nc(-c2ccc(NC(=O)NC3CC3)cc2)nc2c1CS(=O)(=O)C2(C)F` (stereo partly drawn) [Example 43, 1-cyclopropyl-3-(4-(7-fluoro-7-methyl-4-((S)-3-methylmorpholino)-6,6-dioxido-5,7-dihydrothieno[3,4-d]pyrimidin-2-yl)phenyl)urea], for which the IC50 in test [1] is less than 100 nM; in test [2] it was 1000 nM; in test [3], less than 100 nM; in test [4] it was more than 10000 nM.
Take `CC[C@H]1COCCN1c1nc(-c2ccc(NC(=O)NC3CC3)cc2)nc2c1C(C)S(=O)(=O)C2` (stereo partly drawn) [Example 47, 1-cyclopropyl-3-(4-(4-((S)-3-ethylmorpholino)-5-methyl-6,6-dioxido-5,7-dihydrothieno[3,4-d]pyrimidin-2-yl)phenyl)urea]: the IC50 was less than 100 nM in test [1], 79.4 nM in test [2], 100 to 1000 nM in test [3] and more than 10000 nM in test [4].
The like results for `CC[C@H]1COCCN1c1nc(-c2ccc(NC(=O)NC3CC3)cc2)nc2c1CS(=O)(=O)C2(C)C` [Example 51, (S)-1-cyclopropyl-3-(4-(4-(3-ethylmorpholino)-7,7-dimethyl-6,6-dioxido-5,7-dihydrothieno[3,4-d]pyrimidin-2-yl)phenyl)urea] were, in that order, less than 100 nM, 158 nM, less than 100 nM and more than 10000 nM.
Turning to `CCNC(=O)Nc1ccc(-c2nc3c(c(N4CCOC[C@@H]4CC)n2)[C@@H](C)S(=O)(=O)C3)cc1` [Example 52, 1-ethyl-3-(4-((R)-4-((S)-3-ethylmorpholino)-5-methyl-6,6-dioxido-5,7-dihydrothieno[3,4-d]pyrimidin-2-yl)phenyl)urea], the IC50 in test [1] is less than 100 nM; in test [2] it was 31.6 nM; in test [3] it was less than 100 nM; in test [4] it was more than 10000 nM.
Regarding `CCNC(=O)Nc1ccc(-c2nc3c(c(N4CCOC[C@@H]4CC)n2)[C@H](C)S(=O)(=O)C3)cc1` [Example 53, 1-ethyl-3-(4-((S)-4-((S)-3-ethylmorpholino)-5-methyl-6,6-dioxido-5,7-dihydrothieno[3,4-d]pyrimidin-2-yl)phenyl)urea], the IC50 in test [1] was less than 100 nM; in test [2], 63.1 nM; in test [3], less than 100 nM; in test [4] it was more than 10000 nM.
In the case of `CNC(=O)Nc1ccc(-c2nc3c(c(N4CCOC[C@@H]4C)n2)C(C)S(=O)(=O)C3)cc1` (stereo partly drawn) [Example 58, 1-methyl-3-(4-(5-methyl-4-((S)-3-methylmorpholino)-6,6-dioxido-5,7-dihydrothieno[3,4-d]pyrimidin-2-yl)phenyl)urea], the IC50 in test [1] is less than 100 nM; in test [2], 251 nM; in test [3], less than 100 nM; in test [4] it was more than 10000 nM.
For `CC1(C)c2nc(-c3ccc(NC(=O)NC4CC4)cc3)nc(N3C4CCC3COC4)c2CS1(=O)=O` [Example 59, 1-(4-(4-(3-oxa-8-azabicyclo[3.2.1]octan-8-yl)-7,7-dimethyl-6,6-dioxido-5,7-dihydrothieno[3,4-d]pyrimidin-2-yl)phenyl)-3-cyclopropylurea], the IC50 in test [1] is less than 100 nM; in test [2], 100 nM; in test [3] it was less than 100 nM; in test [4], more than 10000 nM.
Turning to `CCNC(=O)Nc1ccc(-c2nc(N3C4CCC3COC4)c3c(n2)C(C)(C)S(=O)(=O)C3)cc1` [Example 60, 1-(4-(4-(3-oxa-8-azabicyclo[3.2.1]octan-8-yl)-7,7-dimethyl-6,6-dioxido-5,7-dihydrothieno[3,4-d]pyrimidin-2-yl)phenyl)-3-ethylurea], the IC50 in test [1] was less than 100 nM; in test [2], 200 nM; in test [3] it was less than 100 nM; in test [4] it was more than 10000 nM.
`C[C@H]1COCCN1c1nc(-c2ccc(NC(=O)NCCF)cc2)nc2c1CS(=O)(=O)C2(C)C` [Example 61, (S)-1-(4-(7,7-dimethyl-4-(3-methylmorpholino)-6,6-dioxido-5,7-dihydrothieno[3,4-d]pyrimidin-2-yl)phenyl)-3-(2-fluoroethyl)urea]: the IC50 is less than 100 nM in test [1], 251 nM in test [2], less than 100 nM in test [3] and more than 10000 nM in test [4].
Turning to `CC[C@H]1COCCN1c1nc(-c2ccc(NC(=O)NC)c(F)c2)nc2c1CS(=O)(=O)C2(C)C` [Example 64, (S)-1-(4-(4-(3-ethylmorpholino)-7,7-dimethyl-6,6-dioxido-5,7-dihydrothieno[3,4-d]pyrimidin-2-yl)-2-fluorophenyl)-3-methylurea], the IC50 in test [1] was less than 100 nM; in test [2], 158 nM; in test [3] it was 100 to 1000 nM; in test [4] it was more than 10000 nM.
The like results for `CNC(=O)Nc1ccc(-c2nc(N3CCOC[C@@H]3C)c3c(n2)C(C)(C)S(=O)(=O)C3)c(F)c1` [Example 66, (S)-1-(4-(7,7-dimethyl-4-(3-methylmorpholino)-6,6-dioxido-5,7-dihydrothieno[3,4-d]pyrimidin-2-yl)-3-fluorophenyl)-3-methylurea] were, in that order, less than 100 nM, 1000 nM, less than 100 nM and more than 10000 nM.
The like results for `CCNC(=O)Nc1ccc(-c2nc3c(c(N4CCOC[C@@H]4C)n2)C(CC)S(=O)(=O)C3)cc1` (stereo partly drawn) [Example 67, 1-ethyl-3-(4-(5-ethyl-4-((S)-3-methylmorpholino)-6,6-dioxido-5,7-dihydrothieno[3,4-d]pyrimidin-2-yl)phenyl)urea] were, in that order, less than 100 nM, 316 nM, less than 100 nM and more than 10000 nM.
The like results for `C[C@H]1COCCN1c1nc(-c2ccc(NC(=O)NC3COC3)cc2)nc2c1CS(=O)(=O)C2(C)C` [Example 68, (S)-1-(4-(7,7-dimethyl-4-(3-methylmorpholino)-6,6-dioxido-5,7-dihydrothieno[3,4-d]pyrimidin-2-yl)phenyl)-3-(oxetan-3-yl)urea] were, in that order, less than 100 nM, 316 nM, 100 to 1000 nM and more than 10000 nM.
Take `CCNC(=O)Nc1ccc(-c2nc(N3CCOC[C@@H]3C)c3c(n2)C(C)(C)S(=O)(=O)C3)c(F)c1` [Example 69, (S)-1-(4-(7,7-dimethyl-4-(3-methylmorpholino)-6,6-dioxido-5,7-dihydrothieno[3,4-d]pyrimidin-2-yl)-3-fluorophenyl)-3-ethylurea]: the IC50 in test [1] was less than 100 nM; in test [2], 126 nM; in test [3], less than 100 nM; in test [4], more than 10000 nM.
Consider `C[C@H]1COCCN1c1nc(-c2ccc(NC(=O)NC3CC3)cc2)nc2c1CS(=O)(=O)C(C)(C)C2` [Example 70, (S)-1-cyclopropyl-3-(4-(7,7-dimethyl-4-(3-methylmorpholino)-6,6-dioxido-7,8-dihydro-5H-thiopyrano[4,3-d]pyrimidin-2-yl)phenyl)urea], for which the IC50 in test [1] is less than 100 nM; in test [2], 158 nM; in test [3] it was less than 100 nM; in test [4], more than 10000 nM.
On to `CC1Cc2nc(-c3ccc(NC(=O)NC4CC4)cc3)nc(N3CCOC[C@@H]3C)c2CS1(=O)=O` (stereo partly drawn) [Example 71, 1-cyclopropyl-3-(4-(7-methyl-4-((S)-3-methylmorpholino)-6,6-dioxido-7,8-dihydro-5H-thiopyrano[4,3-d]pyrimidin-2-yl)phenyl)urea], for which the IC50 is less than 100 nM in test [1], 794 nM in test [2], less than 100 nM in test [3] and more than 10000 nM in test [4].
As for `CC1Cc2nc(-c3ccc(NC(=O)NC4CC4)cc3)nc(N3CCOC[C@@H]3C)c2C(C)S1(=O)=O` (stereo partly drawn) [Example 72, 1-cyclopropyl-3-(4-(5,7-dimethyl-4-((S)-3-methylmorpholino)-6,6-dioxido-7,8-dihydro-5H-thiopyrano[4,3-d]pyrimidin-2-yl)phenyl)urea], the IC50 in test [1] is less than 100 nM; in test [2] it was 398 nM; in test [3] it was less than 100 nM; in test [4] it was more than 10000 nM.
For the molecule `CCNC(=O)Nc1ccc(-c2nc3c(c(N4CCOC[C@@H]4C)n2)CS(=O)(=O)C(C)(C)C3)cc1` [Example 73, (S)-1-(4-(7,7-dimethyl-4-(3-methylmorpholino)-6,6-dioxido-7,8-dihydro-5H-thiopyrano[4,3-d]pyrimidin-2-yl)phenyl)-3-ethylurea], the IC50 in test [1] is less than 100 nM; in test [2], 63.1 nM; in test [3], less than 100 nM; in test [4], more than 10000 nM.
